This note sets out measurements from PubChem BioAssay (NCI).

Test systems include A549 NSCLC; CAKI-1 renal; CCRF-CEM leukemia; EKVX NSCLC; HCT-15 colon; HL-60(TB) leukemia; HOP-62 NSCLC; HS 578T breast; M14 melanoma; MDA-MB-435; MOLT-4 leukemia; NCI-H522 lung; OVCAR-3 ovarian; PC-3 prostate; RXF 393 renal; SK-MEL-2 melanoma; SK-MEL-5 melanoma; SN12C renal; SNB-75 CNS; UACC-62 melanoma.
Assay in all cases: NCI tumour cell line growth inhibition, 48 h

The structures appear in SMILES notation.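 Cells were grown in 96-well plates and exposed to each compound for 48 hours at five concentrations; endpoints were interpolated linearly between bracketing concentrations, or set to the highest concentration if not reached. TGI marks complete inhibition of growth.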

On to `c1ccc([P+](CC[P+](c2ccccc2)(c2ccccc2)c2ccccc2)(c2ccccc2)c2ccccc2)cc1`, for which the TGI with A549 NSCLC was over 100 µM; in the assay with CAKI-1 renal it was over 100 µM; in the assay on CCRF-CEM leukemia it was 2.95 µM; with EKVX NSCLC it was over 100 µM; with HCT-15 colon, over 100 µM; with HL-60(TB) leukemia, 55.2 µM. Further, the TGI with HOP-62 NSCLC is over 100 µM; in the assay with HS 578T breast it was over 100 µM; with M14 melanoma it was over 100 µM; with MDA-MB-435 it was 45.5 µM; with MOLT-4 leukemia, over 100 µM; in the assay on NCI-H522 lung it was over 79.5 µM. In addition, the TGI was over 59.7 µM in the assay on OVCAR-3 ovarian; 60.6 µM in the assay on PC-3 prostate; over 83.4 µM in the assay on RXF 393 renal; 43.6 µM with SK-MEL-2 melanoma; 39.6 µM with SK-MEL-5 melanoma; over 100 µM in the assay on SN12C renal. Besides, the TGI in the assay with SNB-75 CNS is over 76.5 µM; in the assay on UACC-62 melanoma, over 100 µM.
Consider `Cc1nn(C(=O)c2ccc(Cl)cc2)c2c1C(/C=C/c1ccccc1)SC(N)=N2` (stereo not given), for which the TGI with A549 NSCLC, with CAKI-1 renal, with CCRF-CEM leukemia, in the assay with EKVX NSCLC, with HCT-15 colon and in the assay on HL-60(TB) leukemia was over 10 µM each time. The TGI in the assay on HOP-62 NSCLC, in the assay with HS 578T breast, in the assay with M14 melanoma, in the assay with MDA-MB-435, with MOLT-4 leukemia and in the assay with NCI-H522 lung was over 10 µM each time. In addition, the TGI with OVCAR-3 ovarian, in the assay on PC-3 prostate, in the assay on RXF 393 renal, in the assay on SK-MEL-2 melanoma, with SK-MEL-5 melanoma and in the assay on SN12C renal was over 10 µM in each case. For the same compound, the TGI in the assay with SNB-75 CNS and with UACC-62 melanoma was over 10 µM throughout.
`CC(O)CCCCC(O)CCC[C@H](O)[C@H]1CCC([C@H]2CCC([C@@H](O)CCCCCCCCCCCCC3=C[C@H](C)OC3=O)O2)O1` (stereo not given in full): the TGI in the assay on A549 NSCLC was determined as 17.6 µM; in the assay with CAKI-1 renal, 21.1 µM; in the assay with CCRF-CEM leukemia, 31.7 µM; in the assay on EKVX NSCLC it was 17.4 µM; in the assay on HCT-15 colon it was 25.5 µM; in the assay with HL-60(TB) leukemia, 26.9 µM. Also, the TGI was 20.7 µM in the assay on HOP-62 NSCLC; 29 µM in the assay on HS 578T breast; 21.4 µM with M14 melanoma; 18.5 µM in the assay on MDA-MB-435; 20.1 µM in the assay on MOLT-4 leukemia; 16.7 µM with NCI-H522 lung. Besides, the TGI with OVCAR-3 ovarian was determined as 19.1 µM; with PC-3 prostate, 21.2 µM; in the assay with RXF 393 renal, 22.5 µM; in the assay on SK-MEL-2 melanoma, 18.3 µM; in the assay with SK-MEL-5 melanoma, 17.2 µM; in the assay on SN12C renal it was 22.9 µM. Moreover, the values for the TGI with SNB-75 CNS and in the assay with UACC-62 melanoma were 18.9 µM and 21 µM, respectively.
`COc1ccc2c(c1)C(=O)OCCC2`: the TGI with A549 NSCLC, in the assay with CAKI-1 renal, with CCRF-CEM leukemia, in the assay on EKVX NSCLC, with HCT-15 colon and in the assay with HL-60(TB) leukemia was over 100 µM in each case. Further, the TGI in the assay on HOP-62 NSCLC, in the assay on HS 578T breast, in the assay on M14 melanoma, in the assay with MDA-MB-435, in the assay on MOLT-4 leukemia and in the assay on NCI-H522 lung was over 100 µM throughout. Further, the TGI in the assay with OVCAR-3 ovarian, in the assay with PC-3 prostate, with RXF 393 renal, in the assay on SK-MEL-2 melanoma, with SK-MEL-5 melanoma and in the assay with SN12C renal was over 100 µM throughout. Also, the TGI in the assay with SNB-75 CNS and with UACC-62 melanoma was over 100 µM in each case.
For the compound `COc1c(OC(C)=O)c(OC(C)=O)cc2c1-c1ccc(SC)c(=O)cc1C(NC(C)=O)CC2` (stereo not given), the TGI in the assay with A549 NSCLC was over 100 µM; in the assay on CAKI-1 renal, over 87.1 µM; in the assay on CCRF-CEM leukemia, over 100 µM; with EKVX NSCLC, over 100 µM; in the assay on HCT-15 colon, over 97.5 µM; in the assay with HL-60(TB) leukemia, 0.61 µM. Moreover, the TGI is over 100 µM with HOP-62 NSCLC; 0.701 µM with HS 578T breast; over 100 µM in the assay on M14 melanoma; 0.632 µM in the assay with MDA-MB-435; over 100 µM with MOLT-4 leukemia; 0.576 µM with NCI-H522 lung. In addition, the TGI is over 100 µM in the assay on OVCAR-3 ovarian; over 100 µM in the assay on PC-3 prostate; over 86.7 µM in the assay on RXF 393 renal; over 100 µM in the assay on SK-MEL-2 melanoma; 0.794 µM in the assay with SK-MEL-5 melanoma; over 100 µM in the assay with SN12C renal. The TGI with SNB-75 CNS was 15.3 µM; in the assay with UACC-62 melanoma, over 74.9 µM.
Take `CC1(C)CC(=O)C(C=NC(=O)c2ccncc2)=C(O)C1`: the TGI with A549 NSCLC, in the assay on CAKI-1 renal, in the assay with CCRF-CEM leukemia, in the assay on EKVX NSCLC, with HCT-15 colon and in the assay on HL-60(TB) leukemia was over 100 µM each time. The TGI with HOP-62 NSCLC, with HS 578T breast, in the assay with M14 melanoma, in the assay on MDA-MB-435, with MOLT-4 leukemia and with NCI-H522 lung was over 100 µM throughout. In addition, the TGI with OVCAR-3 ovarian, in the assay with PC-3 prostate, in the assay with RXF 393 renal, in the assay on SK-MEL-2 melanoma, with SK-MEL-5 melanoma and in the assay on SN12C renal was over 100 µM each time. Also, the TGI with SNB-75 CNS and with UACC-62 melanoma was over 100 µM each time.
Consider `O=C(Nc1nncs1)NS(=O)(=O)n1c(=S)sc2ccccc21`, for which the TGI with A549 NSCLC is over 100 µM; in the assay with CAKI-1 renal, over 100 µM; in the assay on CCRF-CEM leukemia, 75.7 µM; in the assay with EKVX NSCLC it was over 100 µM; in the assay on HCT-15 colon it was over 100 µM; with HL-60(TB) leukemia it was over 100 µM. Besides, the TGI in the assay with HOP-62 NSCLC, with HS 578T breast, in the assay on M14 melanoma, in the assay on MDA-MB-435, in the assay on MOLT-4 leukemia and with NCI-H522 lung was over 100 µM in each case. The TGI with OVCAR-3 ovarian, in the assay with PC-3 prostate, with RXF 393 renal, in the assay on SK-MEL-2 melanoma, in the assay on SK-MEL-5 melanoma and in the assay on SN12C renal was over 100 µM in each case. The TGI with SNB-75 CNS and with UACC-62 melanoma was over 100 µM in each case.
In the case of `CC(=O)N(CCc1ccccc1)C(C#N)c1ccccc1` (stereo not given), the TGI in the assay on A549 NSCLC, in the assay with CAKI-1 renal, in the assay on CCRF-CEM leukemia, in the assay on EKVX NSCLC, in the assay with HCT-15 colon and in the assay with HL-60(TB) leukemia was over 100 µM throughout. Further, the TGI with HOP-62 NSCLC, with HS 578T breast, in the assay on M14 melanoma, with MDA-MB-435, in the assay on MOLT-4 leukemia and in the assay on NCI-H522 lung was over 100 µM in each case. Moreover, the TGI in the assay with OVCAR-3 ovarian, in the assay with PC-3 prostate, with RXF 393 renal, with SK-MEL-2 melanoma, in the assay on SK-MEL-5 melanoma and in the assay on SN12C renal was over 100 µM each time. Further, the TGI in the assay with SNB-75 CNS and in the assay with UACC-62 melanoma was over 100 µM in each case.
For the compound `CC1CC[C@@]2(OC1)OC1C[C@H]3[C@@H]4CC[C@H]5CC(OC6OC(CO)C(O)C(OC7OC(CO)C(OC8OC(CO)C(O)C(OC9OC(CO)C(O)C(O)C9O)C8OC8OC(CO)C(O)C(O)C8O)C(O)C7O)C6O)[C@H](O)CC5(C)[C@H]4CCC3(C)C1[C@@H]2C` (stereo not given in full), the TGI is 21.6 µM in the assay on A549 NSCLC; 11.3 µM with CAKI-1 renal; 10.2 µM in the assay on CCRF-CEM leukemia; 10.8 µM in the assay with EKVX NSCLC; 19.3 µM in the assay on HCT-15 colon; 9.3 µM in the assay with HL-60(TB) leukemia. For the same compound, the TGI was 11.3 µM in the assay with HOP-62 NSCLC; 6.16 µM in the assay with HS 578T breast; 17.6 µM with M14 melanoma; 14.6 µM with MDA-MB-435; 16.4 µM with MOLT-4 leukemia; 5.35 µM in the assay on NCI-H522 lung. Moreover, the TGI was 1.93 µM with OVCAR-3 ovarian; 6.66 µM in the assay on PC-3 prostate; 3.27 µM with RXF 393 renal; 9.78 µM in the assay on SK-MEL-2 melanoma; 13.6 µM in the assay with SK-MEL-5 melanoma; 9.03 µM with SN12C renal. Moreover, the TGI in the assay on SNB-75 CNS was 10.9 µM; with UACC-62 melanoma it was 16.6 µM.
Take `O=C(/N=C/c1c(O)c2ccccc2oc1=O)Oc1ccccc1`: the TGI in the assay with A549 NSCLC is over 100 µM; with CAKI-1 renal, 94.6 µM; in the assay with CCRF-CEM leukemia it was over 100 µM; with EKVX NSCLC, over 100 µM; in the assay with HCT-15 colon, over 100 µM; in the assay on HL-60(TB) leukemia it was over 100 µM. Further, the TGI with HOP-62 NSCLC was 43.6 µM; in the assay with HS 578T breast, 32.1 µM; with M14 melanoma it was over 100 µM; in the assay on MDA-MB-435 it was 66.5 µM; in the assay with MOLT-4 leukemia it was 96.4 µM; with NCI-H522 lung it was over 100 µM. The TGI in the assay with OVCAR-3 ovarian is 44.2 µM; in the assay with PC-3 prostate it was over 100 µM; in the assay on RXF 393 renal it was 31.1 µM; in the assay with SK-MEL-2 melanoma, 36.1 µM; in the assay on SK-MEL-5 melanoma, over 100 µM; in the assay with SN12C renal it was 51.7 µM. The results for the TGI in the assay on SNB-75 CNS and in the assay on UACC-62 melanoma were 68.4 µM and 79.7 µM, respectively.
With `COC(=O)C1=C(C(=O)Nc2cccnc2Cl)N(c2ccc(OC)cc2[N+](=O)[O-])C(c2ccc(C)cc2)=CC1c1ccc(OC)cc1OC` (stereo not given), the TGI is 40.9 µM in the assay with A549 NSCLC; over 100 µM in the assay on CAKI-1 renal; over 36.8 µM in the assay on CCRF-CEM leukemia; over 81.9 µM in the assay on EKVX NSCLC; 49.8 µM with HCT-15 colon; 52.5 µM with HL-60(TB) leukemia. In addition, the TGI was 68 µM in the assay on HOP-62 NSCLC; 67.4 µM in the assay with HS 578T breast; over 72.5 µM in the assay on M14 melanoma; over 100 µM in the assay with MDA-MB-435; 49.3 µM in the assay on MOLT-4 leukemia; 26.3 µM in the assay on NCI-H522 lung. Further, the TGI with OVCAR-3 ovarian is 43.7 µM; in the assay with PC-3 prostate it was over 100 µM; with RXF 393 renal, 22.2 µM; in the assay with SK-MEL-2 melanoma, 65 µM; in the assay with SK-MEL-5 melanoma, over 73.3 µM; in the assay with SN12C renal, 35 µM. Moreover, the TGI was 72.3 µM in the assay with SNB-75 CNS and over 100 µM in the assay on UACC-62 melanoma.
